# What was measured:
# Format in all cases: physicochemical
# [1] = Slurry conversion at room temperature, solids isolated for XRPD analysis
# Method: (§1) For with Type A, polymorph screening experiments were set up under 32 conditions using methods of solid vapor diffusion, slurry conversion at room temperature, slurry conversion at 50° C., and temperature cycling. Polymorph screening experiments were performed using different crystallization or solid transition methods.
# (§2) Slurry conversion experiments were conducted at room temperate and at 50° C. in different solvent systems. Solids were isolated for XRPD analysis.
# [2] = Slurry conversion at 50° C., solids isolated for XRPD analysis
# Method: as §1, §2
# [3] = Solid vapor diffusion, precipitates isolated for XRPD analysis
# Method: as §1
# Solid vapor diffusion experiments were conducted in different solvent conditions. The precipitates were isolated for XRPD analysis.
# [4] = Temperature cycling polymorph screening; settings: summary of 6 experiments
# Method: as §1
# [5] = Polymorph screening under 32 conditions / form stability
# Text: A comprehensive polymorph screening for a TCA intermediate conjugated to an amino acid which has the structure of Formula (X) was undertaken. The TCA conjugate starting material was characterized by X-ray powder diffraction (XRPD). […] One unique XRPD patterns was observed, which was Type A. Type A is a stable Type At the ambient temperature and humidity.
# as §1
structure (smiles),measurement,setting,value
N[C@@H](COC(=O)CCC(=O)O)C(=O)O [Type A],Solid Form,[1]; Acetone (exp. 818135-04-A2),Type A
same,Solid Form,[1]; CAN (exp. 818135-04-A5),Type A + peak
same,Solid Form,[1]; DCM (exp. 818135-04-A6),Type A + peak
same,Solid Form,[1]; H2O (exp. 818135-04-A7),Type A
same,Solid Form,[1]; IPAc (exp. 818135-04-A3),Type A + peak
same,Solid Form,[1]; MTBE (exp. 818135-04-A4),Type A + peak
same,Solid Form,[1]; MeOH (exp. 818135-04-A1),Type A
same,Solid Form,"[1]; THF/H2O (0.87:0.13, aW~0.8) (exp. 818135-04-A11)",Type A
same,Solid Form,"[1]; THF/H2O (0.924:0.076, aW~0.6) (exp. 818135-04-A10)",Type A
same,Solid Form,"[1]; THF/H2O (0.956:0.044, aW~0.4) (exp. 818135-04-A9)",Type A + peak
same,Solid Form,"[1]; THF/H2O (0.98:0.02, aW~0.2) (exp. 818135-04-A8)",Type A
same,Crystal Type,[1]; summary of 11 experiments,"Type A, Type A + peak"
same,Solid Form,"[2]; slurry at 50° C., 1,4-dioxane (exp. 818135-05-A6)",Type A
same,Solid Form,"[2]; slurry at 50° C., 2-Me THF (exp. 818135-05-A3)",Type A
same,Solid Form,"[2]; slurry at 50° C., CHCL3 (exp. 818135-05-A7)",Type A
same,Solid Form,"[2]; slurry at 50° C., EtOAc (exp. 818135-05-A2)",Type A
same,Solid Form,"[2]; slurry at 50° C., EtOH (exp. 818135-05-A1)",Type A
same,Solid Form,"[2]; slurry at 50° C., MEK (exp. 818135-05-A5)",Type A
same,Solid Form,"[2]; slurry at 50° C., Toluene (exp. 818135-05-A9)",Type A
same,Solid Form,"[2]; slurry at 50° C., n-heptane (exp. 818135-05-A4)",Type A + peak
same,Crystal Type,"[2]; slurry at 50° C., summary of 9 experiments","Type A, Type A + peak"
same,Solid Form,[3]; anti-solvent Acetone (exp. 818135-06-A5),Type A
same,Solid Form,[3]; anti-solvent DCM (exp. 818135-06-A1),Type A
same,Solid Form,[3]; anti-solvent DMSO (exp. 818135-06-A4),Type A
same,Solid Form,[3]; anti-solvent EtOH (exp. 818135-06-A2),Type A
same,Solid Form,[3]; anti-solvent H2O (exp. 818135-06-A6),Type A
same,Solid Form,[3]; anti-solvent THF (exp. 818135-06-A3),Type A
same,Crystal Type,[3]; summary of 6 experiments,Type A
same,Crystal Type,[4],"Type A, Type A + peak"
same,Stability of the crystal form,[5]; ambient temperature and humidity,stable
same,Crystal Type,"[5]; total, all 32 screening experiments","Type A, Type A + peak"

# Reference: US20210317072A1, “H2O CRYSTAL FORMS OF A TCA CYCLE INTERMEDIATE CONJUGATE” (IMBRIA PHARMACEUTICALS, INC., priority 2020, published 2021)
